Structures can show the parent of a compound that is named as a salt. Where two headings read alike, the source gives them in different places.
Tests used:
CDK5/GST-p25 = target: T1, CDK5/GST-p25 (Homo sapiens, UniProt Q00535); experiment: Inhibition of CDK5/GST-p25 kinase activity (ELISA with time-resolved fluorescence readout); type: biochemical
T1 construct: The final construct, encoding for full-length human CDK5; made in house; host or cells: Sf21 insect cells (baculovirus co-infection)
In short: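 The substrate, GST-Rb(773-928), was immobilised on plates and phosphorylated for 20 min at 37 °C by 2 ng/ml CDK5/GST-p25 in HEPES pH 7.2 with 10 µM ATP and 10 mM MgCl2. Both proteins were human and co-expressed in insect cells. Ser-780 phosphorylation was read by europium time-resolved fluorescence and converted to IC50.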

His6-GSK-3β = target: T2, His6-GSK-3β (Homo sapiens, UniProt P49841); experiment: Inhibition of His6-GSK-3β kinase activity (ELISA-based format, time-resolved fluorescence readout); type: biochemical; conditions: for IC50: read-out: GSK3β IC50
T2 construct: made in house; host or cells: Sf21 insect cells (baculovirus)
T2 sequence (P49841 2-419): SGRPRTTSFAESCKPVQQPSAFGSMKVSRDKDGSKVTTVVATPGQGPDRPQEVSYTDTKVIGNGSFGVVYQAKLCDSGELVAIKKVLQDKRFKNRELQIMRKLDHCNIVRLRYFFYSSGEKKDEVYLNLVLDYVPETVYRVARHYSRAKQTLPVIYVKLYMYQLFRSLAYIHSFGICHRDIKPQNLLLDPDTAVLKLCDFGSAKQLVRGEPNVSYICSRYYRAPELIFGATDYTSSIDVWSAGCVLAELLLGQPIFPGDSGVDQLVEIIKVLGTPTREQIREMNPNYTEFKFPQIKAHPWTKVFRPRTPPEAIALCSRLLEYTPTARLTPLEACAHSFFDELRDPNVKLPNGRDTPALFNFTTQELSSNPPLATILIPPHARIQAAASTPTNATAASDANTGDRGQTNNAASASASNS
In short: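 Plate-bound recombinant GST-Rb substrate was phosphorylated for 30 min at 37° C by baculovirus-expressed His6-GSK-3β (200 ng/ml) at 20 μM ATP, 10 mM MgCl2, 2.5% DMSO. Europium time-resolved fluorescence of anti-phospho-Ser780 Rb signal gave inhibition, fitted to IC50.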

T1 sequence (Q00535 whole entry): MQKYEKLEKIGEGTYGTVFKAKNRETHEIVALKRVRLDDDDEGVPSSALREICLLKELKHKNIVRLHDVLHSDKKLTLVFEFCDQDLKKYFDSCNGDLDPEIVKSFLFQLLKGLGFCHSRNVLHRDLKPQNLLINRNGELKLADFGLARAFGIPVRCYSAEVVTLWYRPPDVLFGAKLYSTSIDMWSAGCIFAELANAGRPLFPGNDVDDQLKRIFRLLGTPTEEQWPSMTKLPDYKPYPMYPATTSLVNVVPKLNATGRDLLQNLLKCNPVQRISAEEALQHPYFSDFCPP
T1 sequence (Q15078 108-307 partner limits assumed): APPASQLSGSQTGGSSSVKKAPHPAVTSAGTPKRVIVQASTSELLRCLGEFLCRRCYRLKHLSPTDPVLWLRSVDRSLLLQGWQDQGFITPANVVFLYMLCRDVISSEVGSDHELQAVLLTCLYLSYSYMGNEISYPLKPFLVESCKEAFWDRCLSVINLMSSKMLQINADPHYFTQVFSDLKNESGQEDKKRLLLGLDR

IC50 (CDK5/GST-p25; class symbols) | IC50 (His6-GSK-3β; class symbols) | melting point | inhibition at 10 µM (CDK5/GST-p25) | IC50 (His6-GSK-3β; numeric bounds) | IC50 (CDK5/GST-p25; numeric bounds) | GSK3β % @10 μM (His6-GSK-3β; @10 μM) | Compound
< 0.3 µM | < 0.3 µM | > 300 °C |  |  |  |  | CCOCCn1cc2c(C3C(=O)Nc4ccc(Cl)cc43)nc(NC[C@H](C)O)nc2n1 (stereo partly drawn) [Example 219, 5-Chloro-3-[2-(2-ethoxy-ethyl)-6-((S)-2-hydroxy-propylamino)-2H-pyrazolo [3,4-d]pyrimidin-4-yl]-1,3-dihydro-indol-2-one]
> 10 µM | > 10 µM | > 300 °C |  |  |  |  | O=C1Nc2ccc(F)c(F)c2C1c1ncnc2c1cnn2C1CCCC1 (centres unmarked) [Example 67, 3-(1-Cyclopentyl-1H-pyrazolo[3,4-d]pyrimidin-4-yl)-4,5-difluoro-1,3-dihydro-indol-2-one]
 | < 0.3 µM | > 300 °C | 62% |  |  |  | C[C@@H](O)CNc1nc(C2C(=O)Nc3ccc(Cl)cc32)c2cn(C3CCCC3)nc2n1 (some centres unmarked) [Example 375]
> 10 µM |  | 304 to 306 °C |  | > 3 µM |  |  | O=C1Nc2ccc(Cl)cc2C1c1ncnc2c1cnn2C1CCCC1 (centres unmarked) [Example 58, 5-Chloro-3-(1-cyclopentyl-1H-pyrazolo[3,4-d]pyrimidin-4-yl)-1,3-dihydro-indol-2-one]
 | 0.3 to 3 µM | 296 to 297 °C |  |  | > 3 µM |  | O=C1Nc2c(F)cc(F)cc2C1c1ncnc2nn(C3CCCC3)cc12 (centres unmarked) [Example 35, 3-(2-Cyclopentyl-2H-pyrazolo[3,4-d]pyrimidin-4-yl)-5,7-difluoro-1,3-dihydro-indol-2-one]
> 10 µM |  | 282 to 285 °C |  |  |  | 52% @10 μM | CC(C)CNc1nc(C2C(=O)Nc3ccc(C(F)(F)F)cc32)c2cn(C3CCCC3)nc2n1 (centres unmarked) [Example 249, 3-(2-Cyclopentyl-6-isobutylamino-2H-pyrazolo[3,4-d]pyrimidin-4-yl)-5-trifluoromethyl-1,3-dihydro-indol-2-one]
< 0.3 µM | < 0.3 µM | > 300 °C |  |  |  |  | CCCn1cc2c(C3C(=O)Nc4ccc(C#N)cc43)nc(NCCc3ccccn3)nc2n1 (centres unmarked) [Example 187, 2-Oxo-3-[2-propyl-6-(2-pyridin-2-yl-ethylamino)-2H-pyrazolo[3,4-d]pyrimidin-4-yl]-2,3-dihydro-1H-indole-5-carbonitrile]
0.3 to 3 µM |  | 294 to 296 °C |  | > 3 µM |  |  | O=C1Nc2cc(Cl)ccc2C1c1ncnc2nn(C3CCCC3)cc12 (centres unmarked) [Example 32, 6-Chloro-3-(2-Cyclopentyl-2H-pyrazolo [3,4-d]pyrimidin-4-yl)-2-oxo-1,3-dihydro-indol-2-one]
 | < 0.3 µM | > 300 °C | 67% |  |  |  | C[C@@H](O)CNc1nc(C2C(=O)Nc3ccc(Br)cc32)c2cn(C3CCCC3)nc2n1 (some centres unmarked) [Example 373]
> 10 µM | > 10 µM | > 300 °C |  |  |  |  | O=C1Nc2ccc(C(F)(F)F)cc2C1c1ncnc2c1cnn2C1CCCC1 (centres unmarked) [Example 56, 3-(1-Cyclopentyl-1H-pyrazolo [3,4-d]pyrimidine-4-yl)-5-trifluoromethyl-1,3-dihydro-indol-2-one]
> 10 µM |  | 230 to 233 °C |  | > 3 µM |  |  | O=C1Nc2cc(F)ccc2C1c1ncnc2c1cnn2C1CCCC1 (centres unmarked) [Example 66, 3-(1-Cyclopentyl-1H-pyrazolo[3,4-d]pyrimidin-4-yl)-6-fluoro-1,3-dihydro-indol-2-one]
0.3 to 3 µM | < 0.3 µM | 247 to 250 °C |  |  |  |  | CCCn1cc2c(C3C(=O)Nc4ccc(Br)cc43)nc(NC[C@@H](C)N)nc2n1 (stereo partly drawn) [Example 369, 3-[6-(2-(R)-Amino-propylamino)-2-propyl-2H-pyrazolo[3,4-d]pyrimidin-4-yl]-5-bromo-1,3-dihydro-indol-2-one]
> 10 µM | > 10 µM | 260 to 263 °C |  |  |  |  | CCOCCn1cc2c(C3C(=O)Nc4ccc(Br)cc43)nc(Cl)nc2n1 (centres unmarked) [Example 236, 5-Bromo-3-[6-chloro-2-(2-ethoxy-ethyl)-2H-pyrazolo [3,4-d]pyrimidin-4-yl)-1,3-dihydro-indol-2-one]
 | 0.3 to 3 µM | 242 to 245 °C |  |  | > 3 µM |  | O=C1Nc2ccccc2C1c1nc(NCCCN2CCOCC2)nc2nn(C3CCCC3)cc12 (centres unmarked) [Example 157, 3-[2-cyclopentyl-6-(3-morpholin-4-yl-propylamino)-2H-pyrazolo[3,4-d]pyrimidin-4-yl]-1,3-dihydro-indol-2-one]
< 0.3 µM | < 0.3 µM | > 300 °C |  |  |  |  | CCOCCn1cc2c(C3C(=O)Nc4ccc(Cl)cc43)nc(NC[C@@H](C)O)nc2n1 (stereo partly drawn) [Example 218, 5-Chloro-3-[2-(2-ethoxy-ethyl)-6-((R)-2-hydroxy-propylamino)-2H-pyrazolo[3,4-d]pyrimidin-4-yl]-1,3-dihydro-indol-2-one]
< 0.3 µM | 0.3 to 3 µM | > 380 °C |  |  |  |  | N#Cc1cccc2c1NC(=O)C2c1ncnc2nn(C3CCCC3)cc12 (centres unmarked) [Example 39, 3-(2-Cyclopentyl-2H-pyrazolo[3,4-d]pyrimidin-4-yl)-2-oxo-2,3-dihydro-1H-indole-7-carbonitrile]
0.3 to 3 µM | < 0.3 µM | 209 to 226 °C |  |  |  |  | CC(=O)NCCNc1nc(C2C(=O)Nc3ccc(Cl)cc32)c2cn(C3CCCC3)nc2n1 (centres unmarked) [Example 276, N-{2-[4(5-Chloro-2-oxo-2,3-dihydro-1H-indol-3-yl)-2-cyclopentyl-2H-pyrazolo[3,4-d]pyrimidin-6-ylamino]-ethyl}-acetamide]
< 0.3 µM | < 0.3 µM | > 300 °C (dec.) |  |  |  |  | N#Cc1ccc2c(c1)C(c1ncnc3nn(C4CCCC4)cc13)C(=O)N2 (centres unmarked) [Example 30, 3-(2-Cyclopentyl-2H-pyrazolo[3,4-d]pyrimidin-4-yl)-2-oxo-2,3-dihydro-1H-indole-5-carbonitrile]
> 10 µM | < 0.3 µM | > 300 °C |  |  |  |  | C=CCNc1nc(C2C(=O)Nc3ccc(C(F)(F)F)cc32)c2cn(C3CCCC3)nc2n1 (centres unmarked) [Example 248, 3-(6-Allylamino-2-cyclopentyl-2H-pyrazolo[3,4-d]pyrimidin-4-yl)-5-trifluoromethyl-1,3-dihydro-indol-2-one]
> 10 µM | > 10 µM | > 300 °C |  |  |  |  | O=C1Nc2c(F)cc(F)cc2C1c1ncnc2c1cnn2C1CCCC1 (centres unmarked) [Example 61, 3-(1-cyclopentyl-1H-pyrazolo[3,4-d]pyrimidin-4-yl)-5,7-difluoro-1,3-dihydro-indol-2-one]
 |  | > 300 °C | 63% | > 1 µM |  |  | C=CCNc1nc(C2C(=O)Nc3ccccc32)c2cn(C3CCCC3)nc2n1 (centres unmarked) [Example 243, 3-(6-Allylamino-2-cyclopentyl-2H-pyrazolo[3,4-d]pyrimidin-4-yl)-1,3-dihydro-indol-2-one]
0.3 to 3 µM | < 0.3 µM | 290 to 293 °C |  |  |  |  | Cl.NCCNc1nc(C2C(=O)Nc3ccc(C(F)(F)F)cc32)c2cn(C3CCCC3)nc2n1 (centres unmarked) [Example 252, 3-[6-(2-Amino-ethylamino)-2-cyclopentyl-2H-pyrazolo[3,4-d]pyrimidin-4-yl]-5-trifluoromethyl-1,3-dihydroindol-2-one hydrochloride salt]
 |  | 299 to 303 °C |  |  | > 3 µM |  | O=C1Nc2cc(Cl)ccc2C1c1ncnc2nn(C3CCCCC3)cc12 (centres unmarked) [Example 51, 6-Chloro-3-(2-cyclohexyl-2H-pyrazolo[3,4-d]pyrimidin-4-yl)-1,3-dihydro-indol-2-one]
 |  | 260 to 262 °C |  |  |  |  | CNCCCNc1nc(C2C(=O)Nc3ccc(C(F)(F)F)cc32)c2cn(C3CCCC3)nc2n1 (centres unmarked) (as salt: hydrochloride) [Example 253, 3-[2-Cyclopentyl-6-(3-methylamino-propylamino)-2H-pyrazolo [3,4-d]pyrimidin-4-yl]-5-trifluoromethyl-1,3-dihydro-indol-2-one hydrochloride salt]
 |  | 270 to 273 °C |  |  |  |  | COCCn1cc2c(C3C(=O)Nc4ccc(Br)cc43)nc(NCCC3CCCNC3)nc2n1 (centres unmarked) (as salt: hydrochloride) [Example 228, 5-Bromo-3-[2-(2-methoxy-ethyl)-6-(2-piperidin-3-yl-ethylamino)-2H-pyrazolo[3,4-d]pyrimidin-4-yl]-1,3-dihydro-indol-2-one]
 |  | 267 °C (dec.) |  |  |  |  | CCCCCn1cc2c(C3C(=O)Nc4ccc(C(F)(F)F)cc43)nc(Cl)nc2n1 (centres unmarked)
 |  | 271 to 273 °C |  |  |  |  | CCCn1cc2c(C3C(=O)Nc4ccc(Br)cc43)nc(NCCCNC)nc2n1 (centres unmarked) (as salt: hydrochloride) [Example 201, 5-Bromo-3-[6-(3-methylamino-propylamino)-2-propyl-2H-pyrazolo [3,4-d]pyrimidin-4-yl]-1,3-dihydro-indol-2-one hydrochloride]
 |  | 275 to 277 °C |  |  |  |  | CCOCCn1cc2c(C3C(=O)Nc4ccc(Cl)cc43)nc(NCCCNC)nc2n1 (centres unmarked) (as salt: hydrochloride) [Example 215, 5-Chloro-3-[2-(2-ethoxy-ethyl)-6-(3-methylamino-propylamino)-2H-pyrazolo [3,4-d]pyrimidin-4-yl]-1,3-dihydro-indol-2-one]
 |  | > 300 °C |  |  |  |  | Cn1cc2c(C3C(=O)Nc4ccc(Br)cc43)nc(Cl)nc2n1 (centres unmarked) [Example 300, 5-Bromo-3-(6-chloro-2-methyl-2H-pyrazolo[3,4-d]pyrimidin-4-yl)-1,3-dihydro-indol-2-one]

Source: patent publication US8354414B2, “Substituted bicyclic pyrimidines” (Cephalon, Inc, priority 2006, dated 2013)
